Experimental findings from BindingDB's records for patent US11739093 (Revolution Medicines, 2023) are described below.

The target of the experiment is T1, Tyrosine-protein phosphatase non-receptor type 11 (Homo sapiens, UniProt Q06124).
T1 sequence (Q06124 whole entry): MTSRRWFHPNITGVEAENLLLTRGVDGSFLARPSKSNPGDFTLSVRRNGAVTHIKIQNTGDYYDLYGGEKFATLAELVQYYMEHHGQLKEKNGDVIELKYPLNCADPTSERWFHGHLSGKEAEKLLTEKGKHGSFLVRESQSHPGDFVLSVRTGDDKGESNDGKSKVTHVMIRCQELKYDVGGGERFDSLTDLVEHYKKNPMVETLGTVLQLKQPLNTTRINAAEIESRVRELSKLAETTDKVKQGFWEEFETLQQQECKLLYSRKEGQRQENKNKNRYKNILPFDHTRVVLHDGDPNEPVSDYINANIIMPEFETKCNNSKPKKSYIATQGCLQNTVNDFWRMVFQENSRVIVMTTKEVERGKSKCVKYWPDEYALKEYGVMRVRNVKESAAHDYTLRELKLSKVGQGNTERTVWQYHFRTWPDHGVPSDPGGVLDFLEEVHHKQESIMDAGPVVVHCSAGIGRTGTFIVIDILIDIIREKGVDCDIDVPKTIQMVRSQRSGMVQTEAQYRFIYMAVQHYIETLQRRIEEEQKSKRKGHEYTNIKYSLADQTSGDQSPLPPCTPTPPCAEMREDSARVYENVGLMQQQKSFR
The experiment in a line: SHP2 Allosteric Inhibition Assay. On the procedure:
The phosphatase reactions were performed at room temperature in 96-well black polystyrene plate, flat bottom, non-binding surface (Corning, Cat #3650) using a final reaction volume of 100 μL and the following assay buffer conditions: 50 mM HEPES, pH 7.2, 100 mM NaCl, 0.5 mM EDTA, 0.05% P-20, 1 mM DTT. The inhibition of SHP2 by compounds of the disclosure (concentrations varying from 0.00005-10 μM) was monitored using an assay in which 0.2 nM of SHP2 was incubated with 0.5 μM of Activating Peptide 1 (sequence: H2 N-LN(pY)IDLDLV(dPEG8)LST(pY)ASINFQK-amide) or Activating Peptide 2 (sequence: H2 N-LN(pY)AQLWHA(dPEG8)LTI(pY)ATIRRF-amide). After 30-60- minutes incubation at 25° C., the surrogate substrate DiFMUP (Invitrogen, Cat #D6567) was added to the reaction and activity was determined by a kinetic read using a microplate reader (Envision, Perkin-Elmer or Spectramax M5, Molecular Devices). The excitation and emission wavelengths were 340 nm and 450 nm, respectively. Initial rates were determined from a linear fit of the data, and the inhibitor dose response curves were analyzed using normalized IC50 regression curve fitting with control-based normalization.

Molecule `Cc1nc(N2CCC3(CC2)CO[C@@H](C)[C@H]3N)c2ccnn2c1Sc1ccnc(N)c1Cl` [US11739093, Compound 3] gave an IC50 of 34 nM.

The term IC50 denotes the midpoint of a concentration-inhibition curve. A low value points to greater potency in that assay.
